Experimental data taken from patent US20240208992A1, “MACROCYCLES AS CFTR MODULATORS” (Idorsia Pharmaceuticals Ltd, priority 2021, published 2024).

Biological target: human F508del-CFTR (Homo sapiens, UniProt P13569, DEL508-508)
Experiment: F508del-CFTR cell surface expression (corrector activity), DiscoveRx ß-galactosidase complementation chemiluminescence assay in recombinant U2OS cell line;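 note: U2OS cells co-expressing ProLink-tagged F508del-CFTR and a membrane-anchored enzyme acceptor, where more surface CFTR restores β-galactosidase activity measured by chemiluminescence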
Conditions: for EC50: EC50, F508del-CFTR cell surface expression; for Emax: U2OS
[1] = U2OS cells, 16h compound incubation, geomean values
[2] = in relation to Emax of corrector lumacaftor (=100%), arithmetic mean values
[3] = U2OS cells, 16h compound incubation, geomean of several measurements
[4] = in relation to the Emax of the corrector lumacaftor (=100%), U2OS cells, 16h compound incubation, arithmetic mean
[5] = U2OS cell line, 16h compound incubation, geomean values
[6] = in relation to the Emax of the corrector lumacaftor (=100%), U2OS cell line, 16h compound incubation, arithmetic mean values

Chain of human F508del-CFTR (P13569 with tags, fused parts or gaps DEL508-508): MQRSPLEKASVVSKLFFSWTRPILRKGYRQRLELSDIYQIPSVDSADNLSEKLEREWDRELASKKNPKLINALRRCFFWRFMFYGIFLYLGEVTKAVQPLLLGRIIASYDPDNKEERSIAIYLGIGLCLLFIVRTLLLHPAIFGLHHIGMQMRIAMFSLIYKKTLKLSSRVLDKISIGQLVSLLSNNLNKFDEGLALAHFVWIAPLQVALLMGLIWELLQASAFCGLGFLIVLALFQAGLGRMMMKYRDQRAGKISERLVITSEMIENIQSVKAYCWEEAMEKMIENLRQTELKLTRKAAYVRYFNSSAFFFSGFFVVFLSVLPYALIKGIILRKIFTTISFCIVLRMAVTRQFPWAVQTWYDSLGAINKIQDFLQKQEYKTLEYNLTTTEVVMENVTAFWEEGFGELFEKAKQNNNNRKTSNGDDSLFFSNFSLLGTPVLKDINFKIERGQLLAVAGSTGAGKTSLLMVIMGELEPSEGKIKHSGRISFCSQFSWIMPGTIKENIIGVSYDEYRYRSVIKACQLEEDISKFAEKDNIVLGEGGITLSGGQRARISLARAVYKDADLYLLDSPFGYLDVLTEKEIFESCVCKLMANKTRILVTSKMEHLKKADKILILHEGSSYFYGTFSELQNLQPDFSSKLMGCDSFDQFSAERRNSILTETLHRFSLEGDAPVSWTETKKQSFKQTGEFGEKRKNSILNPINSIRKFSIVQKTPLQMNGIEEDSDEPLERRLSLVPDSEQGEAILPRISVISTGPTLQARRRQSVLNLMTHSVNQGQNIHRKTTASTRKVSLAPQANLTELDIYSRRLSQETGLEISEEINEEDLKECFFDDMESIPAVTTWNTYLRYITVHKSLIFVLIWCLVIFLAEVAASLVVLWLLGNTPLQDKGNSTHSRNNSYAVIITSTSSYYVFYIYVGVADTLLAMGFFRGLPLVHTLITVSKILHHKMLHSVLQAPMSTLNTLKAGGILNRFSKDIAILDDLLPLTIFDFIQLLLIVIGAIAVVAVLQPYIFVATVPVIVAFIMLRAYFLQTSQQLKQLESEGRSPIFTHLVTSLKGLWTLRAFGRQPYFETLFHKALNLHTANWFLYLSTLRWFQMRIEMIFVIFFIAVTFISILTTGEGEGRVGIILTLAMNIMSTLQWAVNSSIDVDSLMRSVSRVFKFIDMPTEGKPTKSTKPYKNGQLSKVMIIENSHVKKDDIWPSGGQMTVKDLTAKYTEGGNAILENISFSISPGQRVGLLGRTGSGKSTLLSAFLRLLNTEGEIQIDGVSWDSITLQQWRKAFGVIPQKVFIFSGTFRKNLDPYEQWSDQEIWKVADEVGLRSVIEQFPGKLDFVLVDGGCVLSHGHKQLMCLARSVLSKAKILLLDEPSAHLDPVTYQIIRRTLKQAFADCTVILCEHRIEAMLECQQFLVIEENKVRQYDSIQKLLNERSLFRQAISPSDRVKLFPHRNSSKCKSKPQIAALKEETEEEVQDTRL

| SMILES | EC50 [1] [µM] | Emax [2] [%] | other results |
| --- | --- | --- | --- |
| COc1nccc2c1C(=O)N[C@H](C(=O)NCCc1cccc(-n3nccn3)c1)CC(=O)N(C)[C@@H](CC(C)C)C(=O)N1CCCC[C@@H]1C(=O)N[C@H](Cc1ccccc1)CO2 [Example 466, (7S,11S,17aR,20R)-N-(3-(2H-1,2,3-triazol-2-yl)phenethyl)-20-benzyl-11-isobutyl-4-methoxy-10-methyl-5,9,12,18-tetraoxo-5,6,7,8,9,10,11,12,15,16,17,17a,18,19,20,21-hexadecahydro-14H-dipyrido[2,1-f:3′,4′-p][1]oxa[4,7,10,14]tetraazacycloheptadecine-7-carboxamide] | 0.548 | 328 | – |
| Cc1cc2c3c(ccc2cn1)OC[C@@H](Cc1ccccc1)NC(=O)[C@@H](CC(F)F)N(C)C(=O)[C@H](CC(C)C)N(C)C(=O)C[C@@H](C(=O)NCCn1nnc(C2CC2)n1)NC3=O [Example 933, (3S,7S,10R,13R)-13-benzyl-N-(2-(5-cyclopropyl-2H-tetrazol-2-yl)ethyl)-10-(2,2-difluoroethyl)-7-isobutyl-6,9,20-trimethyl-1,5,8,11-tetraoxo-1,2,3,4,5,6,7,8,9,10,11,12,13,14-tetradecahydro-[1]oxa[4,7,10,14]tetraazacycloheptadecino[16,17-f]isoquinoline-3-carboxamide] | – | – | EC50 [3]: 0.399 µM; Emax [4]: 485% |
| COc1noc(CCNC(=O)[C@@H]2CC(=O)N(C)[C@@H](CC(C)C)C(=O)N(C)[C@H](Cc3noc(C(C)(C)C)n3)C(=O)N[C@H](Cc3ccccc3)COc3ccc4ncc(F)cc4c3C(=O)N2)n1 [Example 971, (3S,7S,10R,13R)-13-benzyl-10-((5-(tert-butyl)-1,2,4-oxadiazol-3-yl)methyl)-20-fluoro-7-isobutyl-N-(2-(3-methoxy-1,2,4-oxadiazol-5-yl)ethyl)-6,9-dimethyl-1,5,8,11-tetraoxo-1,2,3,4,5,6,7,8,9,10,11,12,13,14-tetradecahydro-[1]oxa[4,7,10,14]tetraazacycloheptadecino[16,17-f]quinoline-3-carboxamide] | – | – | EC50 [3]: 0.163 µM; Emax [4]: 482% |
| COc1cccc(CCNC(=O)[C@@H]2CC(=O)N(C)[C@@H](CC(C)C)C(=O)N3CCN(S(=O)(=O)c4ccccn4)C[C@@H]3C(=O)N[C@H](Cc3ccccc3)COc3ccc4ccccc4c3C(=O)N2)c1 [Example 747, (4aR,7R,18S,22S)-7-benzyl-22-isobutyl-N-(3-methoxyphenethyl)-21-methyl-5,16,20,23-tetraoxo-3-(pyridin-2-ylsulfonyl)-2,3,4,4a,5,6,7,8,16,17,18,19,20,21,22,23-hexadecahydro-1H-naphtho[1,2-p]pyrazino[2,1-f][1]oxa[4,7,10,14]tetraazacycloheptadecine-18-carboxamide] | 0.234 | 213 | – |
| Cc1cc(CCNC(=O)[C@@H]2CC(=O)N(C)[C@@H](CC(C)C)C(=O)N(C)[C@@H](COCc3ccccc3)C(=O)N[C@H](Cc3ccccc3)COc3ccc4ccccc4c3C(=O)N2)on1 [Example 716, (3S,7S,10S,13R)-13-benzyl-10-((benzyloxy)methyl)-7-isobutyl-6,9-dimethyl-N-(2-(3-methylisoxazol-5-yl)ethyl)-1,5,8,11-tetraoxo-1,2,3,4,5,6,7,8,9,10,11,12,13,14-tetradecahydronaphtho[1,2-p][1]oxa[4,7,10,14]tetraazacycloheptadecine-3-carboxamide] | 0.144 | 313 | – |
| COc1nccc2c1C(=O)N[C@H](C(=O)NCCc1nc(C3CC3)no1)CC(=O)N(C)[C@@H](CC(C)C)C(=O)N1CCCC[C@@H]1C(=O)N[C@H](Cc1ccccc1)CO2 [Example 511, (7S,11S,17aR,20R)-20-benzyl-N-(2-(3-cyclopropyl-1,2,4-oxadiazol-5-yl)ethyl)-11-isobutyl-4-methoxy-10-methyl-5,9,12,18-tetraoxo-5,6,7,8,9,10,11,12,15,16,17,17a,18,19,20,21-hexadecahydro-14H-dipyrido[2,1-f:3′,4′-p][1]oxa[4,7,10,14]tetraazacycloheptadecine-7-carboxamide] | 0.624 | 314 | – |
| COc1cccc(CCNC(=O)[C@@H]2CC(=O)N(C)[C@@H](CC(C)C)C(=O)N3CCCC[C@@H]3C(=O)N[C@H](Cc3ccccc3)COc3ccnc(OC)c3C(=O)N2)c1 [Example 180, (7S,11S,17aR,20R)-20-benzyl-11-isobutyl-4-methoxy-N-(3-methoxyphenethyl)-10-methyl-5,9,12,18-tetraoxo-5,6,7,8,9,10,11,12,15,16,17,17a,18,19,20,21-hexadecahydro-14H-dipyrido[2,1-f:3′,4′-p][1]oxa[4,7,10,14]tetraazacycloheptadecine-7-carboxamide] | – | – | EC50 [5]: 0.388 µM; Emax [6]: 257% |
| CC(C)C[C@H]1C(=O)N2CCCC[C@H]2C(=O)N[C@H](Cc2ccccc2)COc2ccc3ncccc3c2C(=O)N[C@H](C(=O)NCCc2ccc(-n3nccn3)cc2)CC(=O)N1C [Example 473, (9S,13S,19aS,22R)-N-(4-(2H-1,2,3-triazol-2-yl)phenethyl)-22-benzyl-13-isobutyl-12-methyl-7,11,14,20-tetraoxo-7,8,9,10,11,12,13,14,17,18,19,19a,20,21,22,23-hexadecahydro-16H-pyrido[2′,11:6,7][1]oxa[4,7,10,14]tetraazacycloheptadecino[16,17-f]quinoline-9-carboxamide] | 0.585 | 119 | – |
| COc1nccc2c1C(=O)N[C@H](C(=O)NCCc1ccc(-n3nccn3)cc1)CC(=O)N(C)[C@@H](CC(C)C)C(=O)N1CCCC[C@@H]1C(=O)N[C@H](Cc1ccccc1)CO2 [Example 468, (7S,11S,17aR,20R)-N-(4-(2H-1,2,3-triazol-2-yl)phenethyl)-20-benzyl-11-isobutyl-4-methoxy-10-methyl-5,9,12,18-tetraoxo-5,6,7,8,9,10,11,12,15,16,17,17a,18,19,20,21-hexadecahydro-14H-dipyrido[2,1-f:3′,4′-p][1]oxa[4,7,10,14]tetraazacycloheptadecine-7-carboxamide] | 0.504 | 361 | – |
| Cc1noc(CCNC(=O)[C@@H]2CC(=O)N(C)[C@@H](CC(C)C)C(=O)N(C)C3(CC3)C(=O)N[C@H](Cc3ccccc3)COc3cnc4ccc(F)cc4c3C(=O)N2)n1 [Example 146, (3′S,7′S,13′R)-13′-benzyl-20′-fluoro-7′-isobutyl-6′,9′-dimethyl-N-(2-(3-methyl-1,2,4-oxadiazol-5-yl)ethyl)-1′,5′,8′,11′-tetraoxo-2′,3′,4′,5′,6′,7′,8′,9′,11′,12′,13′,14′-dodecahydro-1′H-spiro[cyclopropane-1,10′-[1]oxa[4,7,10,14]tetraazacycloheptadecino[17,16-c]quinoline]-3′-carboxamide] | – | – | EC50 [5]: 0.247 µM; Emax [6]: 318% |
| COc1cc(CCNC(=O)[C@@H]2CC(=O)N(C)[C@@H](CC(C)C)C(=O)N(C)[C@@H](Cc3nc(C(F)(F)F)no3)C(=O)N[C@H](Cc3ccccc3)COc3cnc4ccc(F)cc4c3C(=O)N2)on1 [Example 810, (3S,7S,10S,13R)-13-benzyl-20-fluoro-7-isobutyl-N-(2-(3-methoxyisoxazol-5-yl)ethyl)-6,9-dimethyl-1,5,8,11-tetraoxo-10-((3-(trifluoromethyl)-1,2,4-oxadiazol-5-yl)methyl)-1,2,3,4,5,6,7,8,9,10,11,12,13,14-tetradecahydro-[1]oxa[4,7,10,14]tetraazacycloheptadecino[17,16-c]quinoline-3-carboxamide] | – | – | EC50 [3]: 0.161 µM; Emax [4]: 285% |
| Cc1cc(CCNC(=O)[C@@H]2CC(=O)N(C)[C@@H](CC(C)C)C(=O)N(C)[C@@H](C)C(=O)N[C@H](Cc3ccccc3)COc3ccc4cc(C)oc4c3C(=O)N2)on1 (mixture of isomers) [Example 576, (8R,11RS,14S,18S)-8-benzyl-14-isobutyl-2,11,12,15-tetramethyl-N-(2-(3-methylisoxazol-5-yl)ethyl)-10,13,16,20-tetraoxo-7,8,9,10,11,12,13,14,15,16,17,18,19,20-tetradecahydrobenzofuro[7,6-p][1]oxa[4,7,10,14]tetraazacycloheptadecine-18-carboxamide] | 0.523 | 268 | – |
| [2H]C([2H])([2H])Oc1cccc(CCNC(=O)[C@@H]2CC(=O)N(C)[C@@H](CC(C)C)C(=O)N(CCC3CCCCC3)CC(=O)N[C@H](Cc3ccccc3)COc3cnc4ccccc4c3C(=O)N2)c1 [Example 316, (3S,7S,13R)-13-benzyl-9-(2-cyclohexylethyl)-7-isobutyl-N-(3-(methoxy-d3)phenethyl)-6-methyl-1,5,8,11-tetraoxo-1,2,3,4,5,6,7,8,9,10,11,12,13,14-tetradecahydro-[1]oxa[4,7,10,14]tetraazacycloheptadecino[17,16-c]quinoline-3-carboxamide] | – | – | EC50 [5]: 0.055 µM; Emax [6]: 343% |
| CC(C)C[C@H]1C(=O)N(C)[C@H](Cc2cc(C(C)(C)C)no2)C(=O)N[C@H](Cc2ccccc2)COc2cnc3ccc(F)cc3c2C(=O)N[C@H](C(=O)NCCc2noc(C3CC3)n2)CC(=O)N1C [Example 886, (3S,7S,10R,13R)-13-benzyl-10-((3-(tert-butyl)isoxazol-5-yl)methyl)-N-(2-(5-cyclopropyl-1,2,4-oxadiazol-3-yl)ethyl)-20-fluoro-7-isobutyl-6,9-dimethyl-1,5,8,11-tetraoxo-1,2,3,4,5,6,7,8,9,10,11,12,13,14-tetradecahydro-[1]oxa[4,7,10,14]tetraazacycloheptadecino[17,16-c]quinoline-3-carboxamide] | – | – | EC50 [3]: 0.015 µM; Emax [4]: 359% |
